1 compound from ChEMBL document CHEMBL3508693 (2016) can be followed below.

Data set [1] in a line: % aliskiren hemifumarate (0-168h) recovered as M2 from M3 in urine following single intravenous dose of [14C] aliskiren hemifumarate at 1 mg.Kg-1 level in marmoset. The data set is classed as ADME, organism-based, Callithrix jacchus. As to conditions: in vivo.
Data set [2] in a line: % aliskiren hemifumarate (0-168h) recovered as M2 from M3 in urine following single oral dose of [14C] aliskiren hemifumarate at 3 mg.Kg-1 level in marmoset. The class given is ADME, organism-based, Callithrix jacchus. As to conditions: in vivo.
A short description of data set [3]: % aliskiren hemifumarate (0-72h) recovered as M2 from M3 in faeces following single intravenous dose of [14C] aliskiren hemifumarate at 1 mg.Kg-1 level in marmoset. As to conditions: in vivo. The data set is classed as ADME, organism-based, Callithrix jacchus, Feces.
Data set [4] is described as follows: % aliskiren hemifumarate (0-72h) recovered as M2 from M3 in faeces following single oral dose of [14C] aliskiren hemifumarate at 3 mg.Kg-1 level in marmoset. The data set is classed as ADME, organism-based, Callithrix jacchus, Feces. As to conditions: in vivo.
The nature of data set [5]: % aliskiren hemifumarate recovered as M2 from M3 in urine following single oral dose of 300 mg [14C]SPP100 studied in healthy men. The class given is ADME, organism-based. As to conditions: human, in vivo, at 300 mg.
Data set [6] in a line: % aliskiren hemifumarate recovered as M2 from M3 in faeces following single oral dose of 300 mg [14C]SPP100 studied in healthy men. To be noted: human, in vivo, at 300 mg. The class given is ADME, organism-based, Feces.
Data set [7] in a line: % aliskiren hemifumarate recovered as M2 from M3 in urine and faeces following single oral dose of 300 mg [14C]SPP100 studied in healthy men. The data set is classed as ADME, organism-based, Urine/Feces. As to conditions: human, in vivo, at 300 mg.
Data set [8] in a line: % aliskiren recovered as M2 from M3 in bile following single intravenous administration of 10 mg.Kg-1 [14C] aliskiren hemifumarate in male rat. The class given is ADME, organism-based, HAN:WIST(SPF). To be noted: in vivo.
A short description of data set [9]: % aliskiren recovered as M2 from M3 in hydrolysed following single intravenous administration of 10 mg.Kg-1 [14C] aliskiren hemifumarate in male rat. To be noted: in vivo. The class given is ADME, organism-based, HAN:WIST(SPF), Bile.
The nature of data set [10]: % aliskiren recovered as M2 from M3 in urine following single intravenous administration of 10 mg.Kg-1 [14C] aliskiren hemifumarate in male rat. The class given is ADME, organism-based, HAN:WIST(SPF). To be noted: in vivo.
Data set [11] in a line: % aliskiren recovered as M2 from M3 of receiver rat following duodenal infusion of radioactivity through bile from donor rat treated with single intravenous administration of 10 mg.Kg-1 [14C] aliskiren hemifumarate. The class given is ADME, organism-based, HAN:WIST(SPF). To be noted: in vivo.
The nature of data set [12]: % of radioactivity recovered as M2 from M3 in plasma following oral administration of [14C] aliskiren hemifumarate at 100 mg.Kg-1 level in rat. The data set is classed as ADME, organism-based, Albino HAN:WIST. As to conditions: in vivo.
A short description of data set [13]: % of radioactivity recovered as M2 from M3 in urine following oral administration of [14C] aliskiren hemifumarate at 100 mg.Kg-1 level in rat. The class given is ADME, organism-based, Albino HAN:WIST. As to conditions: in vivo.
Data set [14] can be described thus: % of radioactivity recovered as M2 from M3 in faeces following oral administration of [14C] aliskiren hemifumarate at 100 mg.Kg-1 level in rat. The data set is classed as ADME, organism-based, Albino HAN:WIST, Feces. As to conditions: in vivo.
Data set [15] can be described thus: % of radioactivity recovered as M2 from M3 in plasma following intravenous administration of [14C] aliskiren hemifumarate at 10 mg.Kg-1 level in rat. The data set is classed as ADME, organism-based, Albino HAN:WIST. To be noted: in vivo.
A short description of data set [16]: % of radioactivity recovered as M2 from M3 in urine following intravenous administration of [14C] aliskiren hemifumarate at 10 mg.Kg-1 level in rat. To be noted: in vivo. The data set is classed as ADME, organism-based, Albino HAN:WIST.
Data set [17] is described as follows: % of radioactivity recovered as M2 from M3 in faeces following intravenous administration of [14C] aliskiren hemifumarate at 10 mg.Kg-1 level in rat. The data set is classed as ADME, organism-based, Albino HAN:WIST, Feces. As to conditions: in vivo.
Data set [18] is described as follows: % aliskiren recovered as metabolite M2 in plasma following 10 day repeated oral administration of [14C] aliskiren hemifumarate at 100 mg.Kg-1 level studied in rat. The class given is ADME, organism-based, Albino HAN:WIST. As to conditions: in vivo, 240 h.
Data set [19] in a line: % aliskiren recovered as metabolite M2 in urine following 10 day repeated oral administration of [14C] aliskiren hemifumarate at 100 mg.Kg-1 level studied in rat. The data set is classed as ADME, organism-based, Albino HAN:WIST. To be noted: in vivo, 240 h.
A short description of data set [20]: % aliskiren recovered as metabolite M2 in faeces following 10 day repeated oral administration of [14C] aliskiren hemifumarate at 100 mg.Kg-1 level studied in rat. The class given is ADME, organism-based, Albino HAN:WIST, Feces. To be noted: in vivo, 240 h.

As to `COc1ccc(C[C@@H](C[C@H](N)[C@@H](O)C[C@H](C(=O)NCC(C)(C)C(N)=O)C(C)C)C(C)C)cc1OCCC(=O)O`, the Compound recovery in data set [1] is 0.1%; in [2], 0.1%; in data set [3], 6%; in data set [4] it was 2%; in data set [5], less than 0.1%; in [6], 0.5%. The Compound recovery in data set [7] is 0.6%; in [8] it was 7.4%; in [9], 10.2%; in data set [10], 2.9%; in data set [11], 15.4%; in data set [12], “<= 2%”. The Compound recovery entry in data set [13] was “<= 2%”; in data set [14], “<= 2%”; in [15], “<= 2%”; in [16], “<= 2%”; in [17], more than 2%; in data set [18], “OUTCOME = Observed, VALUE = Minor amounts”. The Compound recovery entry is “OUTCOME = Observed, VALUE = Minor amounts” in data set [19] and “OUTCOME = Observed, VALUE = Minor amounts” in [20].
